Assay results taken from PMC4742142, “Identification of novel, in vivo active Chk1 inhibitors utilizing structure guided drug design” (Oncotarget, 2015).
Several values for one entry are separate records, joined by “and”; a condition that tells them apart may be missing. Equal entries are not always repeated. Entries after “also recorded” stand apart in the source; their conditions may differ.

Assays:
HT29 cells = assay: Checkpoint abrogation assay (gemcitabine, nocodazole, pHH3 (S10)); assay type: cell-based, human
Method: The ability of V158411 to abrogate gemcitabine induced S-phase arrest was further characterized using a checkpoint abrogation assay. Cells were pre-treated with gemcitabine for 16 hours followed by increasing concentrations of V158411 in the presence of nocodazole, an inhibitor of microtubule polymerization, for a further 24 hours. Mitotic cells were then scored for pHH3 (S10) expression. p53 defective HT29 cells exposed to gemcitabine, which induces arrest in S-phase, were negative for pHH3 (S10) staining. V158411 treatment abrogated the gemcitabine induced S-phase arrest allowing cells to progress through into mitosis where they were trapped by nocodazole. These cells stained positive for pHH3 and are indicative of checkpoint abrogation.

Colo205 xenografts = assay: Colo205 xenograft antitumor efficacy; assay type: in vivo
Description: Xenograft studies were undertaken by Charles River Laboratories Discovery Services, North Carolina. On the day of tumor cell implant, Colo205 cells were harvested and resuspended in 50% Matrigel matrix (BD Biosciences) in PBS at a concentration of 5 × 10^6 cells/mL. Each test mouse received 1 × 10^6 Colo205 cells implanted subcutaneously (SC) in the flank of female athymic nude mice (HRLN or NCr nu/nu), and tumor growth was monitored as the average size approached 100-150 mm^3. The SW620 tumor line was maintained by serial SC transplantation in female athymic nude mice (HRLN nu/nu). Tumor fragments, approximately 1 mm^3 each, were implanted SC into the right flank of each animal and allowed to grow towards a target size of 100-150 mm^3. On day 1 of the study, tumors were randomized into treatment groups before compound administration.
V158411 was formulated in D5W and administered via IV injection into the tail vein. Cyclic treatment regimens were followed and treatment ranged from 2-3 cycles.
Tumor size was measured with electronic calipers and tumor volume calculated according to the formula ((width × width) × length) /2.
The study endpoint was defined as a tumor volume of 750 mm^3 for Colo205 or 1500 mm^3 for SW620, or day 60, whichever came first. Each animal was euthanized when its' tumor reached this endpoint. The time to endpoint (TTE) for each mouse was calculated from the equation TTE = (log10(endpoint volume)-b)/m where b is the intercept and m the slope of the line obtained by linear regression of a log-transformed tumor growth data set.

[1] = Tolerability (MTD) in female nu/nu mice; assay type: in vivo
Description: Animals were weighed daily for the first five days then twice weekly thereafter for the duration of the study. The mice were observed frequently for overt signs of any adverse, treatment-related side effects, and clinical signs of toxicity recorded. Toxicity greater than a group mean body-weight loss of more than 20% or 1 in 10 treatment-related deaths was considered to be the maximum tolerated dose.

pH2AX (S139) = assay: pH2AX ELISA in HT29 cells with gemcitabine; assay type: cell-based; conditions: Homo sapiens, HT-29, 50 nM gemcitabine, 24 hours, read-out: Gem pH2AX (S139) EC50
Method: 1 × 10^4 HT29 cells were seeded per well of a 96 well plate and treated with a combination of 50 nM gemcitabine plus increasing concentrations of V158411 for 24 hours. Following fixation with methanol, pH2AX was detected with a mouse monoclonal antibody (JBW301, Millipore) and a europium-labeled anti-mouse secondary antibody.

Colo205 = assay: Single agent cytotoxicity assay (SRB, 72 hours); assay type: cell-based; conditions: Homo sapiens, COLO 205, Colo205, colon
Method: (§1) All cells were obtained from the American Type Culture Collection and maintained as low passage stocks. Cells were routinely cultured in DMEM or RPMI1640 containing 10% FCS and 1% penicillin / streptomycin (Invitrogen). The cytotoxicity of V158411 was determined following exposure of cells in 96 well plates using a 10-point titration for 72 hours. Cell proliferation was determined using sulphorhodamine B staining following protein precipitation with 10% TCA.

NCI-H520 = assay: Single agent cytotoxicity assay (SRB, 72 hours); assay type: cell-based; conditions: Homo sapiens, NCI-H520, lung
Method: as §1

HCT116 = assay: Single agent cytotoxicity assay (SRB, 72 hours); assay type: cell-based; conditions: Homo sapiens, HCT-116, HCT116, colon
Method: as §1

SW620 = assay: Single agent cytotoxicity assay (SRB, 72 hours); assay type: cell-based; conditions: Homo sapiens, SW-620, SW620, colon
Method: as §1

HT29 = assay: Single agent cytotoxicity assay (SRB, 72 hours); assay type: cell-based; conditions: Homo sapiens, HT-29, HT29, colon
Method: as §1

PC3 = assay: Single agent cytotoxicity assay (SRB, 72 hours); assay type: cell-based; conditions: Homo sapiens, PC-3, PC3, prostate
Method: as §1

NCI-H460 = assay: Single agent cytotoxicity assay (SRB, 72 hours); assay type: cell-based; conditions: Homo sapiens, NCI-H460, lung
Method: as §1

A549 = assay: Single agent cytotoxicity assay (SRB, 72 hours); assay type: cell-based; conditions: Homo sapiens, A549, lung
Method: as §1

Chk1 = target: T1, Chk1 (Homo sapiens, UniProt O14757); assay: In vitro kinase assay, Chk1; assay type: biochemical
T1 sequence (O14757 1-476): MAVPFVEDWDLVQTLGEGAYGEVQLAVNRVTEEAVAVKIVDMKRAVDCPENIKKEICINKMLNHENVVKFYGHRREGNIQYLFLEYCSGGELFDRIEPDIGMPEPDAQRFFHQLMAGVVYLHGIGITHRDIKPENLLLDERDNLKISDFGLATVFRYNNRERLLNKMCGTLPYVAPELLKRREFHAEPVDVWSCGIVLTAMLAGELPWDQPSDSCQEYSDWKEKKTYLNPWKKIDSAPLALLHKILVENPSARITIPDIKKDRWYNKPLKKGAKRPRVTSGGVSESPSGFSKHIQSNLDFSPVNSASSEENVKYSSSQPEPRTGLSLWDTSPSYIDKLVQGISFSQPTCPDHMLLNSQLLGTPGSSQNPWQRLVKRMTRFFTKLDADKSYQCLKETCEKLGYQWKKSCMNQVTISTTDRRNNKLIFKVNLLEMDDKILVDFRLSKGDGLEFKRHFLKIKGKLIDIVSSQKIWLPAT
Method: Kinase assays were performed as previously described.

[2] = Colo205, 75 mg/kg irinotecan IP followed by 30 mg/kg V158411 IV
[3] = Colo205, 75 mg/kg irinotecan IP followed by 60 mg/kg V158411 IV

SMILES: CN(C)CC(C)(C)COc1ccc2[nH]c(-c3cc(NC(=O)c4cnn(Cc5ccccc5)c4)c[nH]c3=O)cc2c1 [V158411]
- concentration of maximal abrogation of gemcitabine induced S-phase arrest (HT29 cells): around 300 nM
- EC50 (HT29 cells; Homo sapiens, HT-29, gemcitabine 16 hours then compound plus nocodazole 24 hours, read-out: Gem pHH3 (S10) MI EC50 (abrogation of gemcitabine induced S-phase arrest)): 79 nM
- Median TTE (Colo205 xenografts; Colo205, 60 mg/kg IV V158411 monotherapy, untreated 19.8 days): 22.3 days
- single agent anti-tumor activity (Colo205 xenografts; Colo205, 60 mg/kg V158411 monotherapy): inactive; also recorded: no single agent activity
- %TGD (Colo205 xenografts; [2]): 129%
- T-C (Colo205 xenografts; [2]): 25.6
- Median TTE (Colo205 xenografts; Colo205, 75 mg/kg irinotecan IP followed by 30 mg/kg V158411 IV 2 hours later, q7d 3 cycles): 45.4 days
- %TGD (Colo205 xenografts; [3]): 203%
- T-C (Colo205 xenografts; [3]): 40.2
- Median TTE (Colo205 xenografts; Colo205, 75 mg/kg irinotecan IP followed by 60 mg/kg V158411 IV 2 hours later, q7d 3 cycles, study end day 60): 60.0 days and 60 days
- mean body weight nadir (Colo205 xenografts; Colo205, irinotecan plus V158411 combination therapy, day 4): −2.7%
- toxicity / maximum tolerated dose ([1]; IV bolus once or twice weekly, doses up to 100 mg/kg): minimal toxicity at doses up to 100 mg/kg; also recorded: the maximum tolerated dose of V158411 has yet to be found
- effect on irinotecan toxicity ([1]; MTD irinotecan (100 mg/kg IP) plus V158411 up to 100 mg/kg IV 2 hours later, q7d 3 weeks): did not result in increased irinotecan toxicity; also recorded: did not affect the toxicity of irinotecan
- acute, dose-related effects ([1]; single agent IV, self-limiting, minimized by slow infusion): flushing, tachycardia, exophthalmos
- effect on body weight ([1]; single agent, 60 to 100 mg/kg IV q7d for 21 days, female nude mice): no effect on body weight loss
- EC50 (pH2AX (S139)): 51 nM
- GI50 (Colo205): 1600 ± 420 nM
- GI50 (NCI-H520): 550 ± 140 nM
- GI50 (HCT116): 4000 ± 780 nM
- GI50 (SW620): 500 ± 33 nM
- GI50 (HT29): 650 ± 250 nM
- GI50 (PC3): 9500 ± 1000 nM
- GI50 (NCI-H460): 2700 ± 930 nM
- GI50 (A549): 1400 ± 350 nM
- IC50 (Chk1): 4.4 nM
